The subject of the experiment is progesterone receptor. The experiment can be described thus: Screen for progesterone receptor activity (T47D alkaline phosphatase); selectivity versus glucocorticoid receptor. The following applies: further experiments (additional data); ED50 at progesterone receptor divided by ED50 at glucocorticoid receptor. Format: cell-based, human. As to the method: The human breast cancer cell line T47D has been reported to upregulate an endogenous alkaline phosphatase in response to progestins (Di Lorenzo et al., Cancer Research (1991) 51, 4470-4475. T47D cells were seeded into 96 well plates at a density of 1×10^5 cells per well and grown overnight at 37° C. Steroids were dissolved in DMSO, added to the cells (final DMSO concentration 0.7%), and incubated for 24 hours at 37° C. The cells were then washed with PBS and lysed with RIPA buffer (1% IGEPAL, 0.5% Na deoxycholate, 0.1% SDS in phosphate buffered saline). Alkaline phosphatase activity was measured spectrophotometrically (405 nm) using p-nitrophenylphosphate (1.5 mg/ml) as a substrate dissolved in 1M diethanolamine, 0.28M NaCl, 0.5 mM MgCl2. Dose response curves were constructed from which EC50 values were estimated.
Compounds were tested for progesterone activity in accordance with the above screen and the selectivity was determined by dividing the ED50 at the progesterone receptor by the ED50 at the glucocorticoid receptor.

The compound `CC1CC2C3CC(F)C4=CC(=O)C=CC4(C)C3(F)C(O)CC2(C)C1(OC(=O)C1(C)CCCO1)C(=O)SCF` (stereo not drawn) [Example 8A, 6α,9α-Difluoro-11β-hydroxy-16α-methyl-3-oxo-17-(2-methyl-tetrahydrofuran-2-ylcarbonyl)oxy-androsta-1,4-diene-17β-carbothioic acid S-fluoromethyl ester] had a Selectivity of 49425.

The compound `CC1CC2C3CC(F)C4=CC(=O)C=CC4(C)C3(F)C(O)CC2(C)C1(OC(=O)C1SCCS1)C(=O)SCF` (stereo not drawn) [Example 4, 6α,9α-Difluoro-17α-(1,3-dithiolan-2-ylcarbonyl)oxy-11β-hydroxy-16α-methyl-3-oxo-androsta-1,4-diene-17β-carbothioic acid S-fluoromethyl ester] returned a Selectivity of 1192.

For `CC1CC2C3CC(F)C4=CC(=O)C=CC4(C)C3(F)C(O)CC2(C)C1(OC(=O)C1(C)CCCS1)C(=O)SCF` (stereo not drawn) [Example 13A, 6α,9α-Difluoro-11β-hydroxy-16α-methyl-3-oxo-17α-(2-methyl-tetrahydrothiophen-2-ylcarbonyl)oxy-androsta-1,4-diene-17β-carbothioic acid S-fluoromethyl ester], the Selectivity is given as 2650.

`CCC(=O)O[C@]1(C(=O)SCF)[C@H](C)C[C@H]2[C@@H]3C[C@H](F)C4=CC(=O)C=C[C@]4(C)[C@@]3(F)[C@@H](O)C[C@@]21C` [Fluticasone propionate, 6α,9α-Difluoro-17α-(1-oxopropoxy)-11β-hydroxy-16α-methyl-3-oxo-androsta-1,4-diene-17β-carbothioic acid S-fluoromethyl ester, reference compound] gave a Selectivity of 82.

For the compound `CC1CC2C3CC(F)C4=CC(=O)C=CC4(C)C3(F)C(O)CC2(C)C1(OC(=O)C1CCCO1)C(=O)SCF` (stereo not drawn) [Example 2, 6α,9α-Difluoro-11β-hydroxy-16α-methyl-3-oxo-17α-(tetrahydrofuran-2R-ylcarbonyl)oxy-androsta-1,4-diene-17β-carbothioic acid S-fluoromethyl ester], the Selectivity came to 1099.

For `CC1CC2C3CC(F)C4=CC(=O)C=CC4(C)C3(F)C(O)CC2(C)C1(OC(=O)C1(C)OCCO1)C(=O)SCF` (stereo not drawn) [Example 11, 6α,9α-Difluoro-11β-hydroxy-16α-methyl-17α-(2-methyl-1,3-dioxolan-2-ylcarbonyl)oxy-3-oxo-androsta-1,4-diene-17β-carbothioic acid S-fluoromethyl ester], the Selectivity came to 1620.

For `CC1CC2C3CC(F)C4=CC(=O)C=CC4(C)C3(F)C(O)CC2(C)C1(OC(=O)C1(C)CCCO1)C(=O)SCF` (stereo not drawn) [Example 8B, 6α,9α-Difluoro-11β-hydroxy-16α-methyl-3-oxo-17-(2-methyl-tetrahydrofuran-2-ylcarbonyl)oxy-androsta-1,4-diene-17β-carbothioic acid S-fluoromethyl ester], the Selectivity is listed as 63855.

The compound `CC1CC2C3CC(F)C4=CC(=O)C=CC4(C)C3(F)C(O)CC2(C)C1(OC(=O)C1(C)CCCS1)C(=O)SCF` (stereo not drawn) [Example 13B, 6α,9α-Difluoro-11β-hydroxy-16α-methyl-3-oxo-17α-(2-methyl-tetrahydrothiophen-2-ylcarbonyl)oxy-androsta-1,4-diene-17β-carbothioic acid S-fluoromethyl ester] showed a Selectivity of 1955.

Turning to `CC1CC2C3CC(F)C4=CC(=O)C=CC4(C)C3(F)C(O)CC2(C)C1(OC(=O)C1CSC1)C(=O)SCF` (stereo not drawn) [Example 6, 6α,9α-Difluoro-11β-hydroxy-16α-methyl-3-oxo-17α-(thietan-3-ylcarbonyl)oxy-androsta-1,4-diene-17β-carbothioic acid S-fluoromethyl ester], the Selectivity amounted to 500.

The values are drawn from patent publication US20040248867A1, “Novel anti-inflammatory 17α-heterocyclic-esters of 17βcarbothioate androstane derivatives” (priority 2001, published 2004).
